# Data reported in ChEMBL document CHEMBL1201862, “PubChem BioAssay data set” (2004).
# The source made the active and inactive calls.
# Tests used:
# [1] = inhibitors of PGC1a acetylation in cells, dose response, cell-based, cherry-picked samples (AID 720514); assay type: functional;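 also: potency may reflect raised or lowered acetylation signal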
# [2] = biological target: T1, Replicative DNA helicase DnaB (Mycobacterium tuberculosis, UniProt P9WMR3); assay: DnaB intein splicing inhibitors, dose response, biochemical, cell-free fluorescence (AID 449749); assay type: functional
# T1 sequence (P9WMR3 whole entry): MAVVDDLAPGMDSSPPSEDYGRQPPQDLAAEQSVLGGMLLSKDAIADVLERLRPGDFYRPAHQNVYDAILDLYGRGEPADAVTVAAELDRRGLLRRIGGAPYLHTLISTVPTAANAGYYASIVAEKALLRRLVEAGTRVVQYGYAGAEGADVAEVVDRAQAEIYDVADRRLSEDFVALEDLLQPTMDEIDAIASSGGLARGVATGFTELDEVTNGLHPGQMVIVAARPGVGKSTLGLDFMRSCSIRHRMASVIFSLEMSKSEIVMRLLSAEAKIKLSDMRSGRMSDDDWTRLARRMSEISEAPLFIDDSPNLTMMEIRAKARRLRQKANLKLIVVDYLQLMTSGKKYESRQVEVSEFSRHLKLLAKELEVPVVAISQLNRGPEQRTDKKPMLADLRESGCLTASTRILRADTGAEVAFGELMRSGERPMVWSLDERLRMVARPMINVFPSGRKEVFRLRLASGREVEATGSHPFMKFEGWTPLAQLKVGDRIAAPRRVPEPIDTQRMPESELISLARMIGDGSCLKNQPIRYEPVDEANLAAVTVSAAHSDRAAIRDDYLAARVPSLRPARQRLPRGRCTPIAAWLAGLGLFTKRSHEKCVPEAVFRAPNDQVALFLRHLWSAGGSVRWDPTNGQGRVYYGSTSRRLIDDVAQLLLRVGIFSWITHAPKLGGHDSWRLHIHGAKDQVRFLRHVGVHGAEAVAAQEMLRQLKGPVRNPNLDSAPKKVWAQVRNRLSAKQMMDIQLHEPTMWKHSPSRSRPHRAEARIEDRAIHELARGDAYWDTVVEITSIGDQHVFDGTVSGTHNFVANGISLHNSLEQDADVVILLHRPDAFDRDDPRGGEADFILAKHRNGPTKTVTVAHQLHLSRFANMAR
# Protein RecA = biological target: T2, Protein RecA (Mycobacterium tuberculosis, UniProt P9WHJ3); assay: Fluorescence Cell-Free Homogeneous Dose Retest to Identify Inhibitors of RecA-Intein Splicing Activity. [Related pubchem assays (depositor defined):AID2097, AID2223, AID489010, AID492950]; assay type: functional
# T2 sequence (P9WHJ3 whole entry): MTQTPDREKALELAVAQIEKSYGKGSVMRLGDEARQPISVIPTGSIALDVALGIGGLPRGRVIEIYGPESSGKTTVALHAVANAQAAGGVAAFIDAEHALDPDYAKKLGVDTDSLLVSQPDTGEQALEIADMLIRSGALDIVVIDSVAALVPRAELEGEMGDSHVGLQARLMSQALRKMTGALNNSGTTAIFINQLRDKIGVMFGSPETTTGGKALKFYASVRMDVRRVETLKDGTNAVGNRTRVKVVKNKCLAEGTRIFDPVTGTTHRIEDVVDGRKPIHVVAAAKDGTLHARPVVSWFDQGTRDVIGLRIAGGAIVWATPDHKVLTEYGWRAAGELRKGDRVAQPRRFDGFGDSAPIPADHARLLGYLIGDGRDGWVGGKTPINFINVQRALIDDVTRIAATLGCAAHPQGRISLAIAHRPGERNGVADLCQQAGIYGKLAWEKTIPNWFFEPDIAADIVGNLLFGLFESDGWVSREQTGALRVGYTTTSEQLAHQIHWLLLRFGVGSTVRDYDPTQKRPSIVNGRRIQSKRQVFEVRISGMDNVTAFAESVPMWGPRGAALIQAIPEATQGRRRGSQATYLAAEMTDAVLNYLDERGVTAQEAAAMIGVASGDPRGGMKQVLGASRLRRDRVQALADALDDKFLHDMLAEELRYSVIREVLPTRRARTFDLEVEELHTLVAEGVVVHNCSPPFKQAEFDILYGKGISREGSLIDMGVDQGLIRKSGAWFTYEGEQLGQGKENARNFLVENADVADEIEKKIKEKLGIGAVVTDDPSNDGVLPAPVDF
# [3] = biological target: T3, Sentrin-specific protease 8 (Homo sapiens, UniProt Q96LD8); assay type: functional
# T3 sequence (Q96LD8 whole entry): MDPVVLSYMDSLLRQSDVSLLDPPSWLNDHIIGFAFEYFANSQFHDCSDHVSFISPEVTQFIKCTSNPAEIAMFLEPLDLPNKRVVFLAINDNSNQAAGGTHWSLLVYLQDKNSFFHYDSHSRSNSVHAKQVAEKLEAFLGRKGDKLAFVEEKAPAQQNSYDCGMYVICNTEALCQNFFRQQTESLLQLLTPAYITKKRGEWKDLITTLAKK
# [4] = biological target: T3, Sentrin-specific protease 8; assay type: functional; remark: listed apart in the source
# [5] = biological target: Tyrosyl-DNA phosphodiesterase 2 (Homo sapiens, UniProt O95551); assay: human TDP2 enzyme inhibitors, dose response, biochemical, epi absorbance, IC50 (AID 743297)
# Chain of Tyrosyl-DNA phosphodiesterase 2 (O95551 whole entry): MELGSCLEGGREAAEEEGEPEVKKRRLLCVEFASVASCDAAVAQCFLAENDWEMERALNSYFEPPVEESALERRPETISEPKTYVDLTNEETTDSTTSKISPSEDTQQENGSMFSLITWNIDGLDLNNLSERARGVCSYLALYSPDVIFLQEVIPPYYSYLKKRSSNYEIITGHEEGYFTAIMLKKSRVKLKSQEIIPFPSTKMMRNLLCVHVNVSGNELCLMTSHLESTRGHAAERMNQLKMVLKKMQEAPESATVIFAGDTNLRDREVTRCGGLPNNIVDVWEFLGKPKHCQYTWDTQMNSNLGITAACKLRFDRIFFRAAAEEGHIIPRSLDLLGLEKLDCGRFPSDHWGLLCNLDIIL
# [6] = HepG2 cell cytotoxicity, dose response, cytotoxicity control, ATP luminescence, cherry-pick, activator set 2 (AID 1053143); assay type: functional, cell-based
# [7] = P. falciparum 3D7-ScDHODH growth inhibitors, dose response, SYBR Green, dry powder samples (AID 1159570); assay type: functional, cell-based;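 also: parasite growth measured after 72 hours of compound exposure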
# [8] = HepG2 cell cytotoxicity, dose response, cytotoxicity control, plate reader, dry powder samples (AID 1159569); assay type: functional, cell-based;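 also: inhibitor potency with signal falling toward the positive control level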
# [9] = P. falciparum Dd2 growth inhibitors, dose response, SYBR Green, dry powder samples (AID 1159566); assay type: functional, cell-based;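 also: potency for growth inhibition with lower SYBR green DNA signal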
# [10] = P. falciparum ATP4 D1247Y mutant growth inhibitors, dose response, NITD609-resistant line, SYBR Green, dry powder (AID 1159571); assay type: functional, cell-based;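 also: parasites synchronized at ring stage by sorbitol before testing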
# [11] = biological target: T4, Ubiquitin-conjugating enzyme E2 N (Homo sapiens, UniProt P61088); assay type: functional;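 also: Dose-response confirmation in a TR-FRET assay detecting UBC13-driven polyubiquitin chain formation, inhibition measured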
# T4 sequence (P61088 whole entry): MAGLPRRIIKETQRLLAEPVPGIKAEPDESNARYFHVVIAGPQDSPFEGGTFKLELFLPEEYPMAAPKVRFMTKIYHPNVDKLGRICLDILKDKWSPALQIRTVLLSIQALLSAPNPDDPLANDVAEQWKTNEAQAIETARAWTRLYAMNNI
# Major prion protein = Major prion protein (Homo sapiens, UniProt P04156); assay type: functional, cell-based
# [12] = biological target: Ras and Rab interactor 1/Tyrosine-protein kinase ABL1 (Homo sapiens, UniProt P00519+Q13671); assay type: functional;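 also: biochemical TR-FRET dose-response test measuring inhibition of binding between Rin1 and Abl proteins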
# Chain of Ras and Rab interactor 1/Tyrosine-protein kinase ABL1 (P00519 whole entry): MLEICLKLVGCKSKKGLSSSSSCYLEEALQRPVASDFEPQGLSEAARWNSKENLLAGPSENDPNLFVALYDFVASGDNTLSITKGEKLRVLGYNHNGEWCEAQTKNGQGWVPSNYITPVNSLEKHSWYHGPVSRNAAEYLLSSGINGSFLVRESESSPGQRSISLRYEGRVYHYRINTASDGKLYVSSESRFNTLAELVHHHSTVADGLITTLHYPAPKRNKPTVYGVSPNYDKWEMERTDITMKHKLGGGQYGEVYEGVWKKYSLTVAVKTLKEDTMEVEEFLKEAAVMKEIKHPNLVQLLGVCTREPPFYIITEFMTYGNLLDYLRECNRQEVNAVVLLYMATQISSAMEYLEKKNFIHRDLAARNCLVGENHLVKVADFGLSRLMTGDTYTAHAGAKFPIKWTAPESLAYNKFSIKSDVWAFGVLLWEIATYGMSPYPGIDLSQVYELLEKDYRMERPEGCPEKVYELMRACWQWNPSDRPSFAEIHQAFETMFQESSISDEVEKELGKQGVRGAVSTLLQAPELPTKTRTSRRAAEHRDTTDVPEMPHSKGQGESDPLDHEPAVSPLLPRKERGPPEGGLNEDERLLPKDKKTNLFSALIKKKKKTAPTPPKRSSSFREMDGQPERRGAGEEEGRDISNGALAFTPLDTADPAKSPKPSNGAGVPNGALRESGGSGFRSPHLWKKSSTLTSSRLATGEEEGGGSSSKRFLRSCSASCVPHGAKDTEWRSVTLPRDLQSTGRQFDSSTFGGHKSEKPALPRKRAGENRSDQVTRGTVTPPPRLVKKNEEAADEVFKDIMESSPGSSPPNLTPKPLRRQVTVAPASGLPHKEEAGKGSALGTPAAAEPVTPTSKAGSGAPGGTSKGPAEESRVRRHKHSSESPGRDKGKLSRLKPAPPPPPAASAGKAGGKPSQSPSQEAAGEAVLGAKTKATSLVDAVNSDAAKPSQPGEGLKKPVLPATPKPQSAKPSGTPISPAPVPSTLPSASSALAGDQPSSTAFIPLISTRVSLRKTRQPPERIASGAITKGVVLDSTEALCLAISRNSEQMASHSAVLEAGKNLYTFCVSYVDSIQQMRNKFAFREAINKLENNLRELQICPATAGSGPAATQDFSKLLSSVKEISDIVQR
# Chain of Ras and Rab interactor 1/Tyrosine-protein kinase ABL1 (Q13671 whole entry): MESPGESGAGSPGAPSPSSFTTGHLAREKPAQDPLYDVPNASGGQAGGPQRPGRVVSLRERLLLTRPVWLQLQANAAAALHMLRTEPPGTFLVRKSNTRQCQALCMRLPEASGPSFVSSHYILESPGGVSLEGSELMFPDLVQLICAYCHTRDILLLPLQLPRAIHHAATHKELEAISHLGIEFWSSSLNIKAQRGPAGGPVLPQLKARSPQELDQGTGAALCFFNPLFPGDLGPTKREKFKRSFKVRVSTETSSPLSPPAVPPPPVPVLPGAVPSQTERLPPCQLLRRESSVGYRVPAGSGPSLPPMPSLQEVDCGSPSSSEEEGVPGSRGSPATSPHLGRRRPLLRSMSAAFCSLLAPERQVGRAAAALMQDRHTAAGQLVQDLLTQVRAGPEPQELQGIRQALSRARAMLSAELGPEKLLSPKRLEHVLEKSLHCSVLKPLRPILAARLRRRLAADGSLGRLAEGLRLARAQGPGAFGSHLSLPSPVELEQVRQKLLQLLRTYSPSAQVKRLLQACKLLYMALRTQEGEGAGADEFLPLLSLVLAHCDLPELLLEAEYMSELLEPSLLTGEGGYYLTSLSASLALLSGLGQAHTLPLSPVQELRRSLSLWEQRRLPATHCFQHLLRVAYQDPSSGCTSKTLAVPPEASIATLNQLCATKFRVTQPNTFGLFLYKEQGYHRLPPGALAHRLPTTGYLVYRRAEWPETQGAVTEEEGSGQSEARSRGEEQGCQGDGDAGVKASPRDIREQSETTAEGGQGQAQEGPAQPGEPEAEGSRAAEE
# [13] = A549 cell cytotoxicity, dose response, cytotoxicity control, plate reader, cherry-pick, antagonist series (AID 743412); assay type: functional, cell-based
# [14] = HepG2 cell cytotoxicity, dose response, cytotoxicity control, plate reader, cherry-pick, antagonist series (AID 743416); assay type: functional, cell-based
# [15] = LGR2 antagonists, dose response, cell-based, HEK293, CRE-luciferase reporter, cherry pick, set 2 (AID 743343); assay type: functional;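 also: transfected cells were stimulated with diluted bursicon conditioned medium after compound addition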
# [16] = MC4R antagonists, dose response, counter-screen for LGR2 antagonist project, cell-based, plate reader, cherry pick (AID 743444); assay type: functional;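 also: transfected HEK 293 cells stimulated with alpha-MSH peptide; potency of inhibitors of the alpha-MSH evoked signal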
# [17] = HEK293 cell cytotoxicity, dose response, cytotoxicity control, plate reader, cherry-picked samples (AID 743446); assay type: functional, cell-based
smiles,measurement,setting,value
NC(=O)COC(=O)CC(NC(N)=O)c1ccc(Cl)cc1 (stereo not given),AC50,[1],28.7 µM (active)
COC(=O)c1ccccc1-c1ccc(C(c2c(C)n[nH]c2O)c2c(C)n[nH]c2O)o1,AC50,[2],0.279 µM (active)
same,EC50,Protein RecA,0.214 µM (active)
same,IC50,[3],18.6 µM (active)
same,IC50,[4],8.91 µM (active)
same,IC50,[5],51.2 µM (inactive)
Cc1occc1-c1nnc(SC(C)C(=O)Nc2ccccc2F)o1 (stereo not given),AC50,[6],19.3 µM (active)
C[C@H]1CN([C@@H](C)CO)S(=O)(=O)c2ccc(C#CC3CCCCC3)cc2O[C@H]1CN(C)C,AC50,[7],8.69 µM (active)
same,AC50,[8],> 100 µM (inactive)
same,AC50,[9],4.6 µM (active)
same,AC50,[10],2.42 µM (active)
Cc1ccc(NC(=O)CSc2ncnc3ccccc23)cc1S(=O)(=O)N1CCOCC1,IC50,[11],> 20 µM (inactive)
same,IC50,Major prion protein,8.72 µM (active)
same,IC50,cells,> 138 µM (inactive)
CCOC(=O)c1ccc(NC(=O)COc2ccccc2CNCCc2ccccc2)cc1,IC50,[12],25.9 µM (inactive)
same,AC50,[13],10 µM (active)
same,AC50,[14],13.9 µM (active)
same,AC50,[15],17.4 µM (active)
same,AC50,[16],27.7 µM (active)
same,AC50,[17],15.4 µM (active)
